Source: patent publication EP0601520A1, “Trifluorothymidine derivatives, process for producing the same and anti-cancer agent containing the same” (MITSUI TOATSU CHEMICALS, Inc., priority 1992, dated 1994)
Each block holds one molecule with its values, some of them ahead of it.

Columns and labels:
[1] = system: Meth A fibrosarcoma; experiment: Anti-tumor activity, subcutaneously transplanted Meth A fibrosarcoma in mice, oral administration; type: in vivo, CDF₁ mice; conditions: tumors weighed on day 14
Text: (§1) The compound obtained in Examples 1, 4, 9 or 11 was uniformly suspended in 0.5% aqueous methylcellulose solution. The compound obtained in Example 14 was uniformly suspended in 0.5% aqueous methylcellulose solution containing 0.1% TWEEN 80.
(§2) For the compounds obtained in Examples 1, 4, 9 and 11, female CDF₁ mice of 7 weeks old were used. For the compound obtained in Example 14, female CDF₁ mice of 6 weeks old were used. Each group consisted of 5 or 6 animals.
As the tumor, Meth A fibrosarcoma was used.
(§3) To the right abdomen of each mouse, 2 x 10⁶ tumor cells were subcutaneously transplanted. On the next day (day 1), the mice were randomly grouped and the suspension was compulsively administered to the mice by using an oral sound for successive 7 days (day 1 - day 7).
On day 14, the tumors were removed and weighed. The tumor growth ratio (%) was calculated according to the following equation: Tumor Growth Ratio (%) = T/C x 100 [formula] wherein T means the average weight of tumor of the treated group and C means the average weight of tumor of the control group. The results about the compounds obtained in Examples 1, 4, 9 and 11 are shown in Table 2, and the results about the compound obtained in Example 14 are shown in Table 3. In Table 2, "HCFU" means 1-hexyl carbamoyl-5-fluorouracil known as "Carmofur".

[2] = Bodyweight change of the tumor-carrying mice in the anti-tumor activity test; type: in vivo, CDF₁ mice
Text: as §1, §2, §3

[3] = dose 100.0 mg/kg, Table 2 experiment, female CDF₁ mice

- Bodyweight Change ([2]; dose 14.0 mg/kg oral, day 1 - day 7, female CDF₁ mice 7 weeks old, 0.5% methylcellulose suspension): -0.4 g
- Bodyweight Change ([2]; dose 56.1 mg/kg oral, day 1 - day 7, female CDF₁ mice 7 weeks old, 0.5% methylcellulose suspension): -3.2 g
SMILES: C#CCO[C@H]1C[C@H](n2cc(C(F)(F)F)c(=O)[nH]c2=O)O[C@@H]1COC(=S)c1ccc(C)cc1 [Example 1, 3'-O-propargyl-5'-O-(4-methyl-thiobenzoyl)-α,α,α-trifluorothymidine]
- Tumor Weight Ratio (T/C:%) ([1]; dose 14.0 mg/kg oral, day 1 - day 7, female CDF₁ mice 7 weeks old): 28.4%
- Tumor Weight Ratio (T/C:%) ([1]; dose 56.1 mg/kg oral, day 1 - day 7, female CDF₁ mice 7 weeks old): 7.1%

- Bodyweight Change ([2]; dose 14.6 mg/kg oral, day 1 - day 7, female CDF₁ mice 7 weeks old, 0.5% methylcellulose suspension): -0.8 g
- Bodyweight Change ([2]; dose 58.5 mg/kg oral, day 1 - day 7, female CDF₁ mice 7 weeks old, 0.5% methylcellulose suspension): -3.8 g
SMILES: C#CCO[C@H]1C[C@H](n2cc(C(F)(F)F)c(=O)[nH]c2=O)O[C@@H]1COC(=S)c1ccc(Cl)cc1 [Example 4, 3'-O-propargyl-5'-O-(4-chlorothiobenzoyl)-α,α,α-trifluorothymidine]
- Tumor Weight Ratio (T/C:%) ([1]; dose 14.6 mg/kg oral, day 1 - day 7, female CDF₁ mice 7 weeks old): 23.3%
- Tumor Weight Ratio (T/C:%) ([1]; dose 58.5 mg/kg oral, day 1 - day 7, female CDF₁ mice 7 weeks old): 4.8%

- Bodyweight Change ([2]; dose 15.0 mg/kg oral, day 1 - day 7, female CDF₁ mice 7 weeks old, 0.5% methylcellulose suspension): -0.9 g
- Bodyweight Change ([2]; dose 60.0 mg/kg oral, day 1 - day 7, female CDF₁ mice 7 weeks old, 0.5% methylcellulose suspension): -4.3 g
SMILES: C#CCO[C@H]1C[C@H](n2cc(C(F)(F)F)c(=O)[nH]c2=O)O[C@@H]1COC(=S)c1ccc(SC)cc1 [Example 9, 3'-O-propargyl-5'-O-(4-thiomethylthiobenzoyl)-α,α,α-trifluorothymidine]
- Tumor Weight Ratio (T/C:%) ([1]; dose 15.0 mg/kg oral, day 1 - day 7, female CDF₁ mice 7 weeks old): 22.5%
- Tumor Weight Ratio (T/C:%) ([1]; dose 60.0 mg/kg oral, day 1 - day 7, female CDF₁ mice 7 weeks old): 5.1%

- Bodyweight Change ([2]; dose 13.8 mg/kg oral, day 1 - day 7, female CDF₁ mice 7 weeks old, 0.5% methylcellulose suspension): -0.7 g
- Bodyweight Change ([2]; dose 55.1 mg/kg oral, day 1 - day 7, female CDF₁ mice 7 weeks old, 0.5% methylcellulose suspension): -4.4 g
SMILES: C#CCO[C@H]1C[C@H](n2cc(C(F)(F)F)c(=O)[nH]c2=O)O[C@@H]1COC(=S)c1cccs1 [Example 11, 3'-O-propargyl-5'-O-(2-thiophenecarbothionyl)-α,α,α-trifluorothymidine]
- Tumor Weight Ratio (T/C:%) ([1]; dose 13.8 mg/kg oral, day 1 - day 7, female CDF₁ mice 7 weeks old): 27.6%
- Tumor Weight Ratio (T/C:%) ([1]; dose 55.1 mg/kg oral, day 1 - day 7, female CDF₁ mice 7 weeks old): 5.8%

- Bodyweight Change ([2]; dose 13.6 mg/kg oral, day 1 - day 7, female CDF₁ mice 6 weeks old, 0.5% methylcellulose containing 0.1% TWEEN 80): -0.5 g
- Bodyweight Change ([2]; dose 54.4 mg/kg oral, day 1 - day 7, female CDF₁ mice 6 weeks old, 0.5% methylcellulose containing 0.1% TWEEN 80): -3.7 g
SMILES: C#CCO[C@H]1C[C@H](n2cc(C(F)(F)F)c(=O)[nH]c2=O)O[C@@H]1COC(=S)c1ccccc1 [Example 14, 3'-O-propargyl-5'-O-thiobenzoyl-α,α,α-trifluorothymidine]
- Tumor Weight Ratio (T/C:%) ([1]; dose 13.6 mg/kg oral, day 1 - day 7, female CDF₁ mice 6 weeks old): 29.4%
- Tumor Weight Ratio (T/C:%) ([1]; dose 54.4 mg/kg oral, day 1 - day 7, female CDF₁ mice 6 weeks old): 7.2%

SMILES: CCCCCCNC(=O)n1cc(F)c(=O)[nH]c1=O [HCFU, 1-hexyl carbamoyl-5-fluorouracil, reference compound]
- Tumor Weight Ratio (T/C:%) [1, 3]: 18.0%
- Bodyweight Change [2, 3]: -2.0 g
